Laboratory results taken from patent publication US9050266B2, “Phenol derivatives and pharmaceutical or cosmetic use thereof” (GALDERMA RESEARCH & DEVELOPMENT, priority 2009, dated 2015).

How the values were obtained:
[1] = target: T1, receptors of AR type (androgen receptor) (Homo sapiens, UniProt P10275); assay: AR transactivation test in the PALM (PC3 Androgen receptor Luciferse MMTV) cell line, cross curves against methyltrienolone; type: cell-based; conditions: cross curves vs reference agonist methyltrienolone, read-out: Kdapp (apparent dissociation constant)
T1 construct: expressed in transfected cells; host or cells: PALM cell line (PC3 stably transfected with PMMTV-neo-Luc and pSG5puro-AR)
T1 sequence (P10275 1-920): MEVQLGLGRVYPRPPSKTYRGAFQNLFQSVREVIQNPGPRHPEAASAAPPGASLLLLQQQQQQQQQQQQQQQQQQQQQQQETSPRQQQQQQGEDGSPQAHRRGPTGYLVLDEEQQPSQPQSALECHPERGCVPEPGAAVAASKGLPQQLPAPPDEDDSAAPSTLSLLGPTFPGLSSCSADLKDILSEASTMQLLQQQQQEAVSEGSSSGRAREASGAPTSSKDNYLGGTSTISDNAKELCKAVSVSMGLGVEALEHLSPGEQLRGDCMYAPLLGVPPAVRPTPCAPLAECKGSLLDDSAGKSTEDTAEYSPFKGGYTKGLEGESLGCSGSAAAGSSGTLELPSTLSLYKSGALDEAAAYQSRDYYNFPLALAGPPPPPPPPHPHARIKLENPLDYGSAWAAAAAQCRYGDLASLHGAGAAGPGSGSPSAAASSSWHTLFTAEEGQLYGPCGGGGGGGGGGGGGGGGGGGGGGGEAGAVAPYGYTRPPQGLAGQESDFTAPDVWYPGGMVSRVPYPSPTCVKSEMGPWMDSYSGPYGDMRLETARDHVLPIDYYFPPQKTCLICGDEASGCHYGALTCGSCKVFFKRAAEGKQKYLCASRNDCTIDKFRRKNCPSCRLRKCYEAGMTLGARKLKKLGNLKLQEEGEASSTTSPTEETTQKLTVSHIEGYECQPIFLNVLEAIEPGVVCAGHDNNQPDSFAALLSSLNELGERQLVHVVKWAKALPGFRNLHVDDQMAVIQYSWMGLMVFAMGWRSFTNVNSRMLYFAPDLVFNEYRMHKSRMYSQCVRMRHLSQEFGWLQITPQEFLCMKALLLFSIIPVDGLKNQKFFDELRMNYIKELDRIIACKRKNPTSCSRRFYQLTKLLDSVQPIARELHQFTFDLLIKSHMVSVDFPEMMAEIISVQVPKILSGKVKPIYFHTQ
Method: The compounds according to the invention show inhibitory properties on receptors of AR type. This AR receptor-inhibiting activity is measured in a transactivation test through the KdR (resting), KdA (active) and Kdapp (apparent) dissociation constants according to the method set out in J. Molecular Biology (1965), 12(1), 88-118, Monod J. et al.
The expression “AR-type receptor inhibitor” means, according to the invention, any compound which has a Kdapp dissociation constant of less than or equal to 1 μM, and a KdR/KdA ratio ≦10, in a transactivation test.
The transactivation test is carried out in the PALM (PC3 Androgen receptor Luciferse MMTV) cell line which is a stable transfectant containing the PMMTV-neo-Luc (reporter gene) and pSG5puro-AR plasmids.
In this study, the affinity of each product for the 2 receptor states (KdR and KdA) is determined, as is an apparent Kd (KdApp). This constant is a result of the 2 Kd, but also depends on the initial equilibrium of the receptor between the active state and the resting state (L0) and on its expression level. It is determined by means of the following formula: 1/KdApp=(L0/(1+L0))×(1/KdR)+(1/(1+L0))×(1/KdA)
To determine these constants, “cross curves” of the test product against a reference agonist, methyltrienolone, are produced in 96-well plates. The test product is used at 10 concentrations and the reference agonist at 7 concentrations.

melting point | Kd [1] | SMILES
133 °C |  | C[S+]([O-])c1cccc(NCc2ccccc2O)n1 (centres unmarked) [Example 23, 2-[(6-Methanesulphinylpyridin-2-ylamino)methyl]phenol]
61 °C |  | CSc1cccc(NCc2ccccc2O)n1 [Example 22, 2-[(6-Methylsulphanylpyridin-2-ylamino)methyl]phenol]
158 °C | 8 nM | COc1cncc(NCc2ccccc2O)n1 [Example 19, 2-[(6-Methoxypyrazin-2-ylamino)methyl]phenol]
103 °C | 40 nM | COc1cccc(NCc2ccccc2O)n1 [Example 1, 2-[(6-Methoxypyridin-2-ylamino)methyl]phenol]
 | 200 nM | N#Cc1cccc(NCc2ccccc2O)n1 [Example 4, 6-(2-hydroxy-benzyl-amino)-pyridine-2-carbonitrile]
 | 1000 nM | Cc1cc(Cl)nc(NCc2ccccc2O)c1 [Example 18, 2-[(6-chloro-4-methyl-pyridin-2-ylamino)-methyl]-phenol]
 | 2 nM | Oc1ccccc1CNc1cccc(Br)n1 [Example 2, 2-[(6-bromo-pyridin-2-ylamino)-methyl]-phenol]
168 °C |  | Oc1ccccc1CNc1cncc(Br)n1 [Example 13, 2-[(6-Bromopyrazin-2-ylamino)methyl]phenol]
161 °C |  | COc1nccc(NCc2ccccc2O)n1 [Example 20, 2-[(2-Methoxypyrimidin-4-ylamino)methyl]phenol]
